Measurements reported in article PMC8881610 (Nature Communications, 2022).

Columns and labels:
[1] = clinical trial outcome; Drugs@FDA, ChemBL, ClinicalTrials.gov; cited from earlier work
GCGR = GCGR (Homo sapiens, UniProt P47871); test: Whole-cell binding assay, competition with 125I-GCG; set-up: V5 (C); 6×His (C); expressed in transfected cells; host or cells: CHO-K1; settings: Fig. 7c receptor binding profile, n = 3 in duplicate
Description: (§1) Human embryonic kidney 293 cells containing SV40 large T-antigen (HEK293T) were cultured in DMEM (Gibco) supplemented with 10% (v/v) fetal bovine serum (FBS, Gibco), 1 mM sodium pyruvate (Gibco) and 100 units/mL penicillin and 100 μg/mL streptomycin at 37 °C in 5% CO2. Chinese hamster ovary (CHO-K1) cells were cultured in F-12 (Gibco) containing 10% FBS, 100 units/mL penicillin and 100 μg/mL streptomycin at 37 °C in 5% CO2. For cAMP and receptor expression assays, HEK293T cells were seeded into 6-well cell culture plates at a density of 7 × 10^5 cells per well. After overnight incubation, cells were transfected with GIPR, GLP-1R or GCGR construct using Lipofectamine 2000 or Lipofectamine 3000 transfection reagent (Invitrogen). For whole-cell binding assay, CHO-K1 cells were seeded into 96-well fibronectin-treated cell culture plates at a density of 3 × 10^4 cells per well. After overnight incubation, cells were transfected with GIPR, GLP-1R or GCGR construct using Lipofectamine 2000 transfection reagent (Invitrogen). Following 24 h culturing, the transfected cells were ready for use.
For GLP-1R and GCGR, CHO-K1 cells (30,000 cells/well) were seeded into Isoplate-96 plates and incubated for 24 h at 37 °C in 5% CO2. The WT or mutant constructs were transiently transfected using Lipofectamine 2000 transfection reagent as previous described. They were then washed twice using F-12 with 0.1% BSA or 0.1% casein, 33 mM HEPES, and incubated for 2 h at 37 °C. […] Cells were washed three times with ice-cold PBS and lysed in PBS with 1% Triton X-100, 20 mM Tris-HCl. After addition of scintillation cocktail (PerkinElmer), radioactivity (CPM) was counted on a MicroBeta^2 microplate counter (PerkinElmer). Data were normalized to the WT response and analyzed using three-parameter logistic equation.

GIPR = molecular target: T1, GIPR (Homo sapiens, UniProt P48546); test: Whole-cell binding assay, competition with 125I-GIP1-42; set-up: acylated tirzepatide to the full-length or modified; Flag; expressed in transfected cells; settings: Fig. 7c receptor binding profile, n = 3 in duplicate
T1 sequence (P48546 22-466): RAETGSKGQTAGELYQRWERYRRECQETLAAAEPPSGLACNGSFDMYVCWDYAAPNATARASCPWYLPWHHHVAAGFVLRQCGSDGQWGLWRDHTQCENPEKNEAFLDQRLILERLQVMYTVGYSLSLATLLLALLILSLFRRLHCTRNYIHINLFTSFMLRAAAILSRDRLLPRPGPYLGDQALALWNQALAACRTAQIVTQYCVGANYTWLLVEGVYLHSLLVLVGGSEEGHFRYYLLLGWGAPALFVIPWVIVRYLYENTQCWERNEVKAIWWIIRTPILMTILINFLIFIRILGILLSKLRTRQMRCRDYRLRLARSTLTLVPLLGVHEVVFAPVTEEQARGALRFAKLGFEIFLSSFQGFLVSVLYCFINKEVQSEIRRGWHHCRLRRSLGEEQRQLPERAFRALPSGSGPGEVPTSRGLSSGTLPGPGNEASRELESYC
Description: as §1
For GIPR, CHO-K1 cells were cultured in F-12 medium with 10% FBS and seeded at a density of 30,000 cells/well in Isoplate-96 plates (PerkinElmer). The WT or mutant GIPR was transiently transfected using Lipofectamine 2000 transfection reagent as previous described. They were then washed twice using F-12 with 0.1% BSA or 0.1% casein, 33 mM HEPES, and incubated for 2 h at 37 °C. […] Following incubation, cells were washed three times with ice-cold PBS and lysed by addition of 50 μL lysis buffer (PBS supplemented with 20 mM Tris-HCl, 1% Triton X-100, pH 7.4). Fifty µL of scintillation cocktail (OptiPhase SuperMix, PerkinElmer) were added and the plates were subsequently counted for radioactivity (counts per minute, CPM) in a MicroBeta^2 microplate counter (PerkinElmer).

GLP-1R = GLP-1R (Homo sapiens, UniProt P43220); test: cAMP accumulation assay, GLP-1R WT, mutant or modified constructs; format: cell-based; set-up: Flag; expressed in transfected cells; host or cells: HEK293T; settings: GLP-1R; HEK293T, n = 4; SEM
Chain of GLP-1R (P43220 24-463): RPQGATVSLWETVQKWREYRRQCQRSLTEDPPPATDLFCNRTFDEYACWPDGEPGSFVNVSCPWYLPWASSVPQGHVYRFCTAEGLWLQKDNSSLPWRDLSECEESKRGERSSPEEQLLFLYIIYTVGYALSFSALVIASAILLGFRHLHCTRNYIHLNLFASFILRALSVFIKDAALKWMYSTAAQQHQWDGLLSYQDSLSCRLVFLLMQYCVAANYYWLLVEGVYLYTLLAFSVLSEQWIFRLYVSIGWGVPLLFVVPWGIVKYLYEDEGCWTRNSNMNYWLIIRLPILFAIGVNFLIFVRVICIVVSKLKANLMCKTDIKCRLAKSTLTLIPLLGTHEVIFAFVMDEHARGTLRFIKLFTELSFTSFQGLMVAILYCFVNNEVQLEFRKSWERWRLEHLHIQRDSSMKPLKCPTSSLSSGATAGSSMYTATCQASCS
Description: as §1
The human GLP-1R was modified with its native signal sequence (M1-P23) replaced by the HA signal peptide to facilitate receptor expression. To obtain a GLP-1R–Gs complex with good homogeneity and stability, we used the NanoBiT tethering strategy, in which the C terminus of GLP-1R was directly attached to LgBiT subunit followed by a TEV protease cleavage site and a double MBP tag. […] The constructs were cloned into both pcDNA3.1 and pFastBac vectors for functional assays in mammalian cells and protein expression in insect cells, respectively. Other constructs including the full-length and various mutants of human GLP-1R were cloned into pcDNA3.1 vector for cAMP accumulation and whole-cell binding assays.
For GIPR, GLP-1R and GCGR, multi-targeting agonist stimulated cAMP accumulation was measured by a LANCE Ultra cAMP kit (PerkinElmer). After 24 h culture, the transfected cells were seeded into 384-well microtiter plates at a density of 3,000 cells per well in HBSS supplemented with 5 mM HEPES, 0.1% (w/v) BSA or 0.1% (w/v) casein and 0.5 mM 3-isobutyl-1-methylxanthine. The cells were stimulated with different concentrations of peptide agonists for 40 min at RT. Eu-cAMP tracer and ULight^TM-anti-cAMP were then diluted by cAMP detection buffer and added to the plates separately to terminate the reaction. Plates were incubated at RT for 1 h and the fluorescence intensity measured at 620 nm and […] by an EnVision multilabel plate reader (PerkinElmer).

Chain of GCGR (P47871 26-477): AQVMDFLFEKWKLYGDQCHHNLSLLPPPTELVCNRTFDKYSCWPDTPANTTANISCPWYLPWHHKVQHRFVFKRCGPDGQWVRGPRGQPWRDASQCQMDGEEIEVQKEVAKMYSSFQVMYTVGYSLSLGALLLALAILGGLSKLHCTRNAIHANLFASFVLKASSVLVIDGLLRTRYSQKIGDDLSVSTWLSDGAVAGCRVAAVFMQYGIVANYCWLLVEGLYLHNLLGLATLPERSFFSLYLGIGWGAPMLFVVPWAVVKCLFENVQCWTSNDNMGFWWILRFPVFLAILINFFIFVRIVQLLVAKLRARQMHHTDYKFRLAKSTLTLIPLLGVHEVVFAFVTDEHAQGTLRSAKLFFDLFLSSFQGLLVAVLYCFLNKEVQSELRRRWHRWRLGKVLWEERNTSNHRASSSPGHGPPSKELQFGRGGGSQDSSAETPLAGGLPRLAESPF

Compound	GCGR (pIC50 ± S.E.M.) (GCGR)	GIPR (pIC50 ± S.E.M.) (GIPR)	cAMP Emax ± S.E.M. (GLP-1R)	cAMP pEC50 ± S.E.M. (GLP-1R)	Body weight [1]	Fasting plasma glucose [1] [mg/dL]	HAb1c [1] [%]
Exenatide: approved GLP-1R mono-agonist					-0.65 kg or %	-34.20	-1.21
CC[C@H](C)[C@H](NC(=O)[C@H](CO)NC(=O)[C@H](Cc1ccc(O)cc1)NC(=O)[C@H](CC(=O)O)NC(=O)[C@H](CO)NC(=O)[C@@H](NC(=O)[C@H](Cc1ccccc1)NC(=O)[C@@H](NC(=O)CNC(=O)[C@H](CCC(=O)O)NC(=O)[C@H](C)NC(=O)[C@@H](N)Cc1ccc(O)cc1)[C@@H](C)O)[C@@H](C)CC)C(=O)N[C@@H](C)C(=O)N[C@@H](CCSC)C(=O)N[C@@H](CC(=O)O)C(=O)N[C@@H](CCCCN)C(=O)N[C@H](C(=O)N[C@@H](Cc1c[nH]cn1)C(=O)N[C@@H](CCC(N)=O)C(=O)N[C@@H](CCC(N)=O)C(=O)N[C@@H](CC(=O)O)C(=O)N[C@@H](Cc1ccccc1)C(=O)N[C@H](C(=O)N[C@@H](CC(N)=O)C(=O)N[C@@H](Cc1c[nH]c2ccccc12)C(=O)N[C@@H](CC(C)C)C(=O)N[C@@H](CC(C)C)C(=O)N[C@@H](C)C(=O)N[C@@H](CCC(N)=O)C(=O)N[C@@H](CCCCN)C(=O)NCC(=O)N[C@@H](CCCCN)C(=O)N[C@@H](CCCCN)C(=O)N[C@@H](CC(N)=O)C(=O)N[C@@H](CC(=O)O)C(=O)N[C@@H](Cc1c[nH]c2ccccc12)C(=O)N[C@@H](CCCCN)C(=O)N[C@@H](Cc1c[nH]cn1)C(=O)N[C@@H](CC(N)=O)C(=O)N[C@H](C(=O)N[C@H](C(=O)N[C@@H](CCC(N)=O)C(=O)O)[C@@H](C)O)[C@@H](C)CC)C(C)C)[C@@H](C)CC [GIP1-42, glucose-dependent insulinotropic polypeptide]	N.B.						
Dulaglutide: approved GLP-1R mono-agonist					-0.20 kg or %	-34.20	-1.45

The next lines start with results.

GCGR (pIC50 ± S.E.M.) (GCGR)	GIPR (pIC50 ± S.E.M.) (GIPR)	cAMP Emax ± S.E.M. (GLP-1R)	cAMP pEC50 ± S.E.M. (GLP-1R)	Compound	Body weight [1]	Fasting plasma glucose [1] [mg/dL]	HAb1c [1] [%]
N.B.	N.B.			CCCCCCCCCCCCCCCC(=O)N[C@@H](CCC(=O)NCCCC[C@H](NC(=O)[C@H](C)NC(=O)[C@H](C)NC(=O)[C@H](CCC(N)=O)NC(=O)CNC(=O)[C@H](CCC(=O)O)NC(=O)[C@H](CC(C)C)NC(=O)[C@H](Cc1ccc(O)cc1)NC(=O)[C@H](CO)NC(=O)[C@H](CO)NC(=O)[C@@H](NC(=O)[C@H](CC(=O)O)NC(=O)[C@H](CO)NC(=O)[C@@H](NC(=O)[C@H](Cc1ccccc1)NC(=O)[C@@H](NC(=O)CNC(=O)[C@H](CCC(=O)O)NC(=O)[C@H](C)NC(=O)[C@@H](N)Cc1c[nH]cn1)[C@@H](C)O)[C@@H](C)O)C(C)C)C(=O)N[C@@H](CCC(=O)O)C(=O)N[C@@H](Cc1ccccc1)C(=O)N[C@H](C(=O)N[C@@H](C)C(=O)N[C@@H](Cc1c[nH]c2ccccc12)C(=O)N[C@@H](CC(C)C)C(=O)N[C@H](C(=O)N[C@@H](CCCNC(=N)N)C(=O)NCC(=O)N[C@@H](CCCNC(=N)N)C(=O)NCC(=O)O)C(C)C)[C@@H](C)CC)C(=O)O [Liraglutide]			
N.B.	N.B.	100.13 ± 1.66 % max GLP-1(7-36)NH2	11.02 ± 0.05	Albiglutide: approved GLP-1 analog, GLP-1R mono-agonist	-0.04 kg or %	-30.00	-1.3
